The text below walks through data of patent US6407071B1, “Method and composition for treating malignant cells” (Co-Enzyme Technology Ltd., priority 1998, dated 2002).

One assay concerns human tumor cells. Briefly: Oxidizing agents found toxic to human tumor cells. Format: cell-based.
The subject of assay [1] is localized malignant melanomas. To be noted: cited from earlier work.
In another assay the test system is cancer cells. As to the kind of experiment: Toxicity to cancer cells in vitro relative to para-methoxy phenol. In kind it is cell-based. The settings on record: compared with para-methoxy phenol.
Another assay concerns prostate cancer. As to the kind of experiment: Six month study of P.S.A. levels in prostate cancer patients: glyceraldehyde, Glycosole and the combination. In kind it is in vivo, human. More on the design: key to Patient dead (#): # Dead; P.S.A. Levels during 6 month from initiation of treatment, 1 mo. / P.S.A. Levels during 6 month from initiation of treatment, 2 mo. / P.S.A. Levels during 6 month from initiation of treatment, 3 mo. / P.S.A. Levels during 6 month from initiation of treatment, 4 mo. / P.S.A. Levels during 6 month from initiation of treatment, 5 mo. / P.S.A. Levels during 6 month from initiation of treatment, 6 mo.: unit not given here. As to the method: A six month study was conducted comparing the anti-cancer effect of Glycosole (Glyc., the glucuronide of para-methoxy-phenol), glyceraldehyde, and a combination of the two compounds. These compounds were administered to patients suffering from prostate cancer separately and together. All of the patients suffered from bone metastases and no longer responded to conventional hormone therapy. Patients were administered either 3 grams glyceraldehyde per day, 6 grams per day of Glycosole, or a combination of both agents.

Values joined by “and” are separate entries in the source; they are usually repeats but may differ in a detail not shown here. Equal values may be shown once.

For 4-benzomethoxy phenol, the “Toxicity to human tumor cells” value with human tumor cells is “toxic to human tumor cells”.
On to `COc1ccc(O)cc1` [4-hydroxyanisole], for which the “Toxicity to human tumor cells” value with human tumor cells is recorded as “toxic to human tumor cells”. The “Effect on localized malignant melanomas” value in assay [1] (intra-arterial infusion) is given as “underwent regression”. Also, in assay [1] (intravenous administration), the “Therapeutic effect in malignant melanoma” value is on record as “not therapeutically effective”.
As to `CCCOc1ccc(O)cc1` [4-propoxy phenol], the “Toxicity to human tumor cells” value with human tumor cells is “toxic to human tumor cells”.
Regarding `CCC(C)(C)c1ccc(O)cc1` [4-tert-amyl phenol], the “Toxicity to human tumor cells” value in the assay with human tumor cells was “toxic to human tumor cells”.
In the case of `CCC(C)(C)c1ccc(O[C@@H]2O[C@H](C(=O)O)[C@@H](O)[C@H](O)[C@H]2O)cc1` [4-tert-amyl phenyl glucuronide], in the assay on cancer cells, the “Toxicity to cancer cells in vitro relative to para-methoxy phenol” value came out at 5.5 times.
Turning to `N[C@@H](Cc1cc(O)c(O)cc1O)C(=O)O` [6-hydroxydopa, 3,4,6-trihydroxyphenylalanine], the “Toxicity to human tumor cells” value with human tumor cells is reported as “toxic to human tumor cells”.
`O=CC(O)CO` (stereo not shown) [Glycer Aldehyde, glyceraldehyde]: in the assay with prostate cancer (1 mo., single patients, bone metastases, glyceraldehyde 3 g/day, Glycosole 6 g/day or both), the “P.S.A. Levels during 6 month from initiation of treatment, 1 mo.” value is 760 and 190 and 2250 and 340 and 910 and 150. In the assay with prostate cancer (2 mo., single patients, glyceraldehyde 3 g/day, Glycosole 6 g/day or both), the “P.S.A. Levels during 6 month from initiation of treatment, 2 mo.” value is 680 and 180 and 1100 and 380 and 850 and 90. Besides, in the assay on prostate cancer (3 mo., single patients, glyceraldehyde 3 g/day, Glycosole 6 g/day or both), the “P.S.A. Levels during 6 month from initiation of treatment, 3 mo.” value was 600 and 150 and 1000 and 310 and 740 and 80. Further, in the assay on prostate cancer (4 mo., single patients, glyceraldehyde 3 g/day, Glycosole 6 g/day or both), the “P.S.A. Levels during 6 month from initiation of treatment, 4 mo.” value was 580 and 145 and 980 and 280 and 760 and 80. For the same compound, the “P.S.A. Levels during 6 month from initiation of treatment, 5 mo.” value in the assay on prostate cancer (5 mo., single patients, glyceraldehyde 3 g/day, Glycosole 6 g/day or both) is 540 and 140 and 220 and 680 and 64. Also, the “P.S.A. Levels during 6 month from initiation of treatment, 6 mo.” value in the assay on prostate cancer (6 mo., single patients, glyceraldehyde 3 g/day, Glycosole 6 g/day or both) was 420 and 100 and 180 and 360 and 60. The “P.S.A. Levels during 6 month from initiation of treatment, 10 mo.” value with prostate cancer (10 mo., single patients) was 380 and 480 and 600. Besides, the “P.S.A. Levels during 6 month from initiation of treatment, 11 mo.” value in the assay on prostate cancer (11 mo., single patients) is 920 and 700. Further, in the assay on prostate cancer (12 mo., single patients), the “P.S.A. Levels during 6 month from initiation of treatment, 12 mo.” value is on record as 846. Moreover, the “Patient dead (#)” value in the assay on prostate cancer (marked in column 5 mo.), in the assay with prostate cancer (marked in column 11 mo.) and in the assay with prostate cancer (marked in column 12 mo.) was “#” in each case. Besides, the “Response of patients to the treatment” value in the assay with prostate cancer (prostate cancer with bone metastases, 3 grams glyceraldehyde per day, 6 grams per day of Glycosole, or both) is recorded as “None of the patients administered glyceraldehyde alone responded”.
Regarding `N[C@@H](Cc1ccc(O)c(O)c1)C(=O)O` [L-3,4-dihydroxyphenylalanine], the “Toxicity to human tumor cells” value in the assay with human tumor cells is on record as “toxic to human tumor cells”.
Same read-out and setting: the entry for `COc1ccc(O)c(C(C)(C)C)c1` [butylated hydroxyanisole] is “toxic to human tumor cells”; for `NCCc1ccc(O)c(O)c1` [dopamine, 3,4-dihydroxyphenethylanine] it is “toxic to human tumor cells”.
Same read-out and setting: the value for `Oc1ccc(O)cc1` [hydroquinone] was “toxic to human tumor cells”.
On the same count and under the same terms, the entry for `COC(=O)c1cc(O)c(O)c(O)c1` [methyl gallate] is “toxic to human tumor cells”; for `Oc1cccc(O)c1` [resorcinol] it is “toxic to human tumor cells”; for `N[C@@H](Cc1ccc(O)cc1)C(=O)O` [tyrosine] it is “toxic to human tumor cells”.
